Data from ChEMBL document CHEMBL1201862, “PubChem BioAssay data set” (2004).
Activity calls are given as the source filed them. Cut-off read from the data, not from the text of the source, for most assays here: active = IC50 of 5 µM or less and inactive = more.

Assays:
[1] = rise of 2N DNA cells, HeLa – IC50, dose response (AID 1117349); assay type: functional, cell-based
[2] = CellTiter-Glo luminescence survival assay, SW480 colon tumor line, concentration-response curve, half-maximal inhibitory concentration (AID 1117338); assay type: functional
[3] = RKO cell viability reduction, dose response, CellTiter-Glo luminescence (AID 1117322); assay type: functional
[4] = cytotoxicity toward HCT116 cells – cell-based, CellTiter-Glo luminescence, IC50, dose response (AID 1117332); assay type: functional; settings: HCT-116
[5] = SNU-C1 cell viability reduction, dose response, CellTiter-Glo luminescence (AID 1117323); assay type: functional, cell-based
[6] = cytotoxicity toward Colo320 cells – cell-based, CellTiter-Glo luminescence, IC50, dose response (AID 1117334); assay type: functional; settings: COLO 320
[7] = rise of 4N DNA cells, HeLa – IC50, dose response (AID 1117351); assay type: functional, cell-based
[8] = cytotoxicity toward HT-29 cells – cell-based, CellTiter-Glo luminescence, IC50, dose response (AID 1117330); assay type: functional
[9] = Reduced DLD-1 viability, concentration-response, CellTiter-Glo luminescence (AID 1117352); assay type: functional
[10] = HCT116 cell viability decrease, GSK3B pretreatment – CellTiter-Glo, IC50, dose response (AID 1117339); assay type: functional; settings: HCT-116
Mucolipin-3 = target: T1, Mucolipin-3 (Homo sapiens, UniProt Q8TDD5); assay: Dose response cell-based high-throughput screening assay for agonists of the transient receptor potential channel ML3 (TRPML3). [Related pubchem assays: 1526, 1424, 1448 ]; assay type: functional
T1 sequence (Q8TDD5 whole entry): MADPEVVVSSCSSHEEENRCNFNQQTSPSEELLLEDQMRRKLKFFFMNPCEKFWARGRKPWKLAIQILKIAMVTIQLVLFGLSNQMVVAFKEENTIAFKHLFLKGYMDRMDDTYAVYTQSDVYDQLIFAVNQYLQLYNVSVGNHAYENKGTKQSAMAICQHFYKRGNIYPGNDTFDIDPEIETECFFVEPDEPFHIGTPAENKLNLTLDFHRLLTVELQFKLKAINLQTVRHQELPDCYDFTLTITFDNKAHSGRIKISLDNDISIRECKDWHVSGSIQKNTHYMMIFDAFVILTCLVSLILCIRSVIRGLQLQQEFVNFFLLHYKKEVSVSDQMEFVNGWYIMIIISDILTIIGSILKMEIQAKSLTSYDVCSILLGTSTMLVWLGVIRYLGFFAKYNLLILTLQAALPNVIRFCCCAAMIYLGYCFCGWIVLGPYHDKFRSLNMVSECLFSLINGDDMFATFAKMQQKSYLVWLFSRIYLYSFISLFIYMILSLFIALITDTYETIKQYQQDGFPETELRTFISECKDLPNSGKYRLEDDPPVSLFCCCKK

Ion channel NompC = Ion channel NompC (Danio rerio, UniProt Q7T1G6); assay: Fluorescence counterscreen assay for TRPML3 agonists: dose response cell-based high-throughput screening assay to identify agonists of the transient receptor potential channel N1 (TRPN1). [Related pubchem assays: 1526, 1424, 1448 ]; assay type: functional
[11] = target: T2, Mannose-6-phosphate isomerase (Homo sapiens, UniProt P34949); assay: MPI enzyme activity inhibition – biochemical, fluorescence intensity, coupled assay, primary screen (AID 1209)
T2 sequence (P34949 whole entry): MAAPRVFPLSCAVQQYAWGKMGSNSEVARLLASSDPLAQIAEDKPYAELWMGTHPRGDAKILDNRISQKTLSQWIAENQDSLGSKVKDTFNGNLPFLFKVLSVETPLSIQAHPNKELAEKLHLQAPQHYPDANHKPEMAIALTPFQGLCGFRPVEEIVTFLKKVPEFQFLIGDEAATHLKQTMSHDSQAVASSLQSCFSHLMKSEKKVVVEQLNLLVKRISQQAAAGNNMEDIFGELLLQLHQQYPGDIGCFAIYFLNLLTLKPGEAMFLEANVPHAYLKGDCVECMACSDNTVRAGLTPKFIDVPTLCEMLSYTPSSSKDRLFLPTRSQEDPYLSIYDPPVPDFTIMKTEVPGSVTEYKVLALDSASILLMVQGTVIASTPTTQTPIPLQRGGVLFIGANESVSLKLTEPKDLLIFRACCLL

[12] = target: T2, Mannose-6-phosphate isomerase; assay: MPI inhibition at elevated mannose 6-phosphate – biochemical, fluorescence intensity, high mannose 6-phosphate, primary screen (AID 1220)

Chain of Ion channel NompC (Q7T1G6 whole entry): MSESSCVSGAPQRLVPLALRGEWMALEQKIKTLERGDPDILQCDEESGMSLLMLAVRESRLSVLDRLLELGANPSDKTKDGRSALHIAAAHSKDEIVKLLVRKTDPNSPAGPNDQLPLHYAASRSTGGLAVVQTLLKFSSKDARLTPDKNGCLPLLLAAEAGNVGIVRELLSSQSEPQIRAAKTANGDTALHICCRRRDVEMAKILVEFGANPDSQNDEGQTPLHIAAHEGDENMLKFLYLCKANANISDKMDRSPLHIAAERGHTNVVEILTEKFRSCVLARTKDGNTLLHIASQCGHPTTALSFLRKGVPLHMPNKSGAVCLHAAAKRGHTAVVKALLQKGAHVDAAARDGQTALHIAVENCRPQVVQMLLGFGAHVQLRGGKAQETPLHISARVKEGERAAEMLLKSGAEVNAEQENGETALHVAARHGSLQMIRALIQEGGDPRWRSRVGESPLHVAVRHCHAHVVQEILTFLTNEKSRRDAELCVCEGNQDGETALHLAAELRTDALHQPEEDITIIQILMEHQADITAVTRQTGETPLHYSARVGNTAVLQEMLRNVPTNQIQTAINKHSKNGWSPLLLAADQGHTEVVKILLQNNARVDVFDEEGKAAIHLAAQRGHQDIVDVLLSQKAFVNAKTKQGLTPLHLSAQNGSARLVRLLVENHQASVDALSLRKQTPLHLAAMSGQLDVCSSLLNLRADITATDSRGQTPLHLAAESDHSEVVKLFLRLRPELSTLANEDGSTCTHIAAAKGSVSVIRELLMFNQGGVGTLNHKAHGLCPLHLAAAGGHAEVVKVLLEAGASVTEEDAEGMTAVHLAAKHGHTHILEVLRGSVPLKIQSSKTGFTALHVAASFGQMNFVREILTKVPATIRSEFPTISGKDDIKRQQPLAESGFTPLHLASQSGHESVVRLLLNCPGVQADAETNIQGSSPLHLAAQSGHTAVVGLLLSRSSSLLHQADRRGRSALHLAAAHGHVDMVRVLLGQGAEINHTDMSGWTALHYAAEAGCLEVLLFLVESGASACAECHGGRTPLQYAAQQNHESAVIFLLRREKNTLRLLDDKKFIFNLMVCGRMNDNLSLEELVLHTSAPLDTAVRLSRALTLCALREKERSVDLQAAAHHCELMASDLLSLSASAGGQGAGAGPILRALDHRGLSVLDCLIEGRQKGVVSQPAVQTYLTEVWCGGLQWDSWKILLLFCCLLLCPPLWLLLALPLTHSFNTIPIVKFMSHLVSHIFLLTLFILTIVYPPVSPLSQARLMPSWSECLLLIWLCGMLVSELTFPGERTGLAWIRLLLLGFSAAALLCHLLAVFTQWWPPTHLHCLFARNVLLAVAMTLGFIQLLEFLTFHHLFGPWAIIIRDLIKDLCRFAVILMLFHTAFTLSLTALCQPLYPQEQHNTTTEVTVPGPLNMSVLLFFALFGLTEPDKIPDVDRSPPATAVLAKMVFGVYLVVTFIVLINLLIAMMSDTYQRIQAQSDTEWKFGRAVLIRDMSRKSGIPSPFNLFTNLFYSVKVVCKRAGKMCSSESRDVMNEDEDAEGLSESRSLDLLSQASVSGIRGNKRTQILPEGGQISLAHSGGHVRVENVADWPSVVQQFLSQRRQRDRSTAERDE

EC50 (Mucolipin-3)	EC50 (Ion channel NompC)	SMILES	IC50 [1]	IC50 [2]	IC50 [3]	IC50 [4]	IC50 [5]	IC50 [6]	IC50 [7]	IC50 [8]	IC50 [9]	IC50 [10]	further results
3.01 µM (active)	> 29.9 µM (not active)	COc1ccccc1N(C)S(=O)(=O)c1ccc(Cl)c(C(=O)OCc2c(C)noc2C)c1	–	–	–	–	–	–	–	–	–	–	–
1.84 µM (active)	> 9.99 µM (not active)	COc1ccc(N(CC(=O)N2CCCCC2)S(=O)(=O)c2ccccc2)c(OC)c1	–	–	–	–	–	–	–	–	–	–	–

More lines, now with the values behind:

SMILES	EC50 (Mucolipin-3)	EC50 (Ion channel NompC)	IC50 [1]	IC50 [2]	IC50 [3]	IC50 [4]	IC50 [5]	IC50 [6]	IC50 [7]	IC50 [8]	IC50 [9]	IC50 [10]	further results
O[C@@H](CNC[C@H](O)[C@H]1CCc2cc(F)ccc2O1)[C@@H]1CCc2cc(F)ccc2O1	–	–	> 10 µM (inactive)	3.6 µM (active)	3.28 µM (active)	6.48 µM (inactive)	5.09 µM (inactive)	> 20 µM (inactive)	> 10 µM (inactive)	4.5 µM (active)	15.3 µM (inactive)	2.4 µM (active)	–
Cc1ccccc1C(=O)Nc1ccc(C(=O)N2CCCC(N(C)C)c3ccccc32)cc1 (stereo unspecified) [MOZAVAPTAN]	–	–	> 10 µM (inactive)	–	–	–	–	–	> 10 µM (inactive)	–	–	–	–
CCOc1ccc(/C=N/c2cccc3ncccc23)cc1	–	–	–	–	–	–	–	–	–	–	–	–	IC50 [11]: > 50 µM (not active); IC50 [12]: > 50 µM (not active)
CCCCCCCCOC(=O)c1ccccc1C(=O)OCCCCCCCC	–	–	–	> 20 µM (inactive)	> 20 µM (inactive)	> 20 µM (inactive)	> 20 µM (inactive)	> 20 µM (inactive)	–	> 20 µM (inactive)	> 20 µM (inactive)	> 20 µM (inactive)	–
